Legend:
B16F1 melanoma tumors = assay: B16F1 melanoma subcutaneous tumor growth; format: in vivo, mouse; conditions: M0038-F01 10, 1 or 0.1 mg/kg Q2d IP; doxorubicin 5 mg/kg weekly IP
Source text: B16F1 melanoma cells were implanted into Female C57/BL6 (CR) mice (4-6 Weeks old) mice by subcutaneous injection.

MDA-MB-231-GFP tumors = assay: MDA-MB-231-GFP orthotopic breast tumor growth and metastasis
Protocol: Human breast cancer cells MDA-MB-231 cells transfected with green fluorescent protein (MDA-MB-231-GFP) were inoculated into the mammary fat pad of female BALB/c nu/nu mice with Matrigel. Animals were monitored for tumor growth, and at week 4-5 post tumor cell inoculation, animals with tumors of 30-50 mm^3 were selected, randomized and divided into experimental groups. […] Tumor volume was measured weekly, starting at week 5. Additionally, tissue samples of lung, liver, and spleen were taken to assess metastasis.
Animals were inoculated with MDA-MB-231-GFP cells as described above, then selected and randomized, and divided into experimental groups of 8 animals each. […] Tumor volume was measured weekly, starting at week 5.
Tumor tissue samples were collected on day 35 post-treatment for immunohistochemical analysis. Paraffin-embedded tissue samples were sectioned, stained with CD31 (Santa Cruz Biotechnology Inc., Santa Cruz, Calif., USA), Ki-67 (DAKO, Carpinteria, Calif., USA), MAPK, FAK, phosphoMAPK or phosphoFAK antibodies, visualized with biotinylated secondary antibodies using a VECTASTAIN® ABC (Vector Laboratories Inc., Burlingame, Calif., USA), and lightly counterstained with haemotoxylin.

[1] = system: activation of pro-MMP-2 by MMP-14 in PMA-activated HT-1080 cells; assay: Gelatin zymogram, pro-MMP-2 activation in HT-1080 cells; format: cell-based, human; conditions: gelatin zymography of conditioned media after 3 days; antibodies 10 μg/ml, GM6001 10 μM
Protocol: The ability of anti-MMP-14 IgGs to inhibit the activation of pro-MMP-2 by MMP-14 was examined by gelatin zymogram experiments performed with PMA-activated HT-1080 cells. M0033-H07 and M0038-F01 were tested for their ability to inhibit MMP-14 in this assay. HT1080 cells (well-known to express MMP-14 and MMP-2) were seeded at 5×10^5 cells/well at Day 0. […] HT-1080 cells cultured in the presence of 20 ng/ml of PMA were used as a positive control.
After 3 days of incubation, conditioned media were collected and gelatinolytic activities were analyzed by gelatin zymography as described previously (Maquoi et al, J Biol Chem 2000; 275:11368-78). When HT-1080 cells are activated with a phorbol ester, pro-MMP-2 is activated into MMP-2 (lane 1).

MDA-MB-435 GFP tumors = assay: MDA-MB-435 GFP orthotopic breast tumor growth; format: in vivo, mouse
Source text: Fragments of MDA-MB-435 GFP (MDA-MB-435 cells expressing green fluorescent protein) tumors were transplanted by surgical orthotopic implantation (SOI) into the right second mammary gland. Treatment was started on day 15 after SOI when the volume of primary tumors reached about 85 mm^3.
Mice were sacrificed at day 61 after the start of the treatment and tumors (primary and metastases) were identified by fluorescent imaging. Additionally, primary tumors were excised and weighed. […] However, M0038-F01 was not effective in reducing lymph node or lung metastases in this experiment.

PC3 prostate tumors = assay: PC3 prostate tumor growth; format: in vivo, mouse; conditions: M0038-F01 10, 1 or 0.1 mg/kg Q2d IP; taxotere 10 mg/kg weekly IP; A2 10 mg/kg Q2d
Source text: PC3 prostate cancer cells were implanted into male nude mice by subcutaneous injection.

[2] = immunostaining of tumor tissue, day 35
[3] = immunostaining of tumor tissue, day 35 post-treatment, image analysis

COc1cccc2c1C(=O)c1c(O)c3c(c(O)c1C2=O)C[C@@](O)(C(=O)CO)C[C@@H]3O[C@H]1C[C@H](N)[C@H](O)[C@H](C)O1 [DOX, doxorubicin]
tumor growth (B16F1 melanoma tumors): effective in reducing tumor growth
metastases to spleen (MDA-MB-231-GFP tumors; M0038-F01 10 mg/kg Q2d IP, DOX 5 mg/kg weekly IP): reduced in DOX and M0038-F01 treated animals, but the difference was not statistically significant
lung and liver metastases (MDA-MB-231-GFP tumors; M0038-F01 10 mg/kg Q2d IP, DOX 5 mg/kg weekly IP, compared to controls): statistically significant reduction
tumor growth (tumor volume) (MDA-MB-231-GFP tumors; M0038-F01 or A2 10 mg/kg Q2d IP, DOX 5 mg/kg weekly IP, five weeks): substantially inhibited
CD31 and KI67 levels compared to vehicle and A2 controls (MDA-MB-231-GFP tumors; [2]): slightly reduced
phospho-FAK level (MDA-MB-231-GFP tumors; [2]): 4±1.2 A.U.
phospho-MAP kinase level (MDA-MB-231-GFP tumors; [2]): 5.8±1.9 A.U.
total FAK level (MDA-MB-231-GFP tumors; [2]): 6±1 A.U.
total MAP kinase level (MDA-MB-231-GFP tumors; [2]): 5.8±1.9 A.U.
CD31 (MDA-MB-231-GFP tumors; [3]): 4.08 ± 1.28
Ki67 (MDA-MB-231-GFP tumors; [3]): 5.2 ± 0.84

CNC(=O)[C@H](Cc1c[nH]c2ccccc12)NC(=O)[C@@H](CC(=O)NO)CC(C)C [GM6001, reference compound]
pro-MMP-2 activation by MMP-14 [1]: completely abolished
pro-MMP-9 expression [1]: paradoxically stimulated

CC(=O)O[C@@]12CO[C@@H]1C[C@H](O)[C@@]1(C)C(=O)[C@H](O)C3=C(C)[C@@H](OC(=O)[C@H](O)[C@@H](NC(=O)OC(C)(C)C)c4ccccc4)C[C@@](O)([C@@H](OC(=O)c4ccccc4)[C@H]21)C3(C)C [Taxotere, taxotere, reference compound]
Tumor Mass (±SD) (MDA-MB-435 GFP tumors; 10 mg/kg (F01 and A2 Q2d IP; taxotere QW×3 i.v.), excised primary tumor, day 61, * p≦0.05 compared to Control): 0.59 ± 0.59*
tumor volume (MDA-MB-435 GFP tumors; M0038-F01 1 or 10 mg/kg Q2d IP, taxotere 10 mg/kg QW×3 i.v.): reduction of tumor volume
tumor growth (tumor volume) (PC3 prostate tumors): extremely effective

From patent publication US8106168B2, “Metalloproteinase binding proteins” (Dyax Corp., priority 2005, dated 2012)
